Assay results: US20230165806A1, “Topical Therapy of Skin Fibrosis and Melanoma” (Board of Regents, The University of Texas System, priority 2021, published 2023)

Assay: Solubility of NAVI in COA ionic liquid
Assay type: physicochemical
Text: Skin melanoma remains one of the fastest-growing and the most common types of cancer in the United States and worldwide. Although primary melanoma can be removed by surgery if detected, advanced metastatic melanoma cannot be managed by surgery alone and thus an alternative and effective therapeutic approach is required. Direct local application of anti-cancer drugs may effectively treat topical cancerous skin lesions when surgery is not feasible. However, these therapies are severely limited due to the protective nature of the skin and the fact that current topical treatments may cause skin irritation, burning, light sensitivity, scaling, and inflammation. To treat early-stage melanoma, we have developed a topical formulation of Navitoclax (NAVI), a BCL-2 inhibitor that upregulates apoptosis, in association with an ionic liquid composed of Choline Octanoate (COA) at a molar ratio of 1:1. NAVI is a small hydrophobic molecule that solubilizes at 20% (w/v) when dissolved into 50% (DW v/v) COA. […] Therefore, COA-mediated topical delivery of NAVI enhanced transportation through the skin barrier and held the drug in the deeper skin layers for an extended period compared to the control.
The main challenges in treating fibrosis with chemotherapeutics are epidermal layer penetration, the appropriate concentration, and drug retention within the layer for a more extended period. […]

solubility (choline octanoate (COA) ionic liquid, aqueous with cosolvent or surfactant or cyclodextrin, with COA, read-out: solubility of NAVI increased by COA): ≤ 150 µg/mL
solubility of NAVI (dissolved into 50% (DW v/v) COA): 20 % (w/v)
SMILES: CC1(C)CCC(c2ccc(Cl)cc2)=C(CN2CCN(c3ccc(C(=O)NS(=O)(=O)c4ccc(N[C@H](CCN5CCOCC5)CSc5ccccc5)c(S(=O)(=O)C(F)(F)F)c4)cc3)CC2)C1 [NAVI, Navitoclax]
